In patent publication US20250179077A1, “QUINAZOLINE COMPOUNDS AND USES THEREOF AS INHIBITORS OF MUTANT KRAS PROTEINS” (AMGEN INC., priority 2022, published 2025):
Where two headings read alike, the source gives them in different places.

Experiments:
[1] = biological target: His-tagged KRAS G12D protein (Homo sapiens, UniProt P01116, G12D); test: KRAS G12D TR-FRET Assay; assay type: binding
Method in brief: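 His-KRAS G12D (20 nM) was preincubated with titrated compound for 30 min at RT in HEPES pH 7.4 buffer with MgCl2, 10 μM GDP. Biotin-KRPep-2d (20 nM) was then added for 1 h, followed by Eu-anti-His/streptavidin-d2 for 1 h. The 665/615 nm TR-FRET ratio was fitted 4-parameter to give IC50.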

[2] = system: Phosphorylation of ERK1/2 in AsPC-1 cells; test: Phospho-ERK1/2 MSD Assay; assay type: cell-based
Method in brief: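 Phospho-ERK1/2 was quantified by MSD whole-cell lysate immunoassay in RIPA lysates made with protease/phosphatase inhibitors. A 4-parameter logistic model gave IC50.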

[3] = biological target: GDP-bound KRAS protein (aa 1-169), containing both G12D and C118A amino acid substitutions (Homo sapiens, UniProt P01116, C118A/G12D); test: KRAS G12D Coupled Nucleotide Exchange Assay; assay type: biochemical
Sequence of GDP-bound KRAS protein (aa 1-169), containing both G12D and C118A amino acid substitutions (P01116 1-169 isoform P01116-2 G12D/C118A): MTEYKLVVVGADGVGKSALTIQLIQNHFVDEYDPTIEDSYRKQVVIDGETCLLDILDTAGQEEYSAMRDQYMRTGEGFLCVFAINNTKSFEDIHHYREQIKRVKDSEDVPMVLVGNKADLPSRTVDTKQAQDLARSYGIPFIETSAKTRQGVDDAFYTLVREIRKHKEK
Protocol: KRAS G12D Coupled Nucleotide Exchange Assay
Following compound pre-incubation, purified SOS protein (aa 564-1049) and GTP (Roche 10106399001) were added to the assay wells and incubated for an additional 30 min. […] The assay plates were then read on a PerkinElmer EnVision Multilabel Reader, using AlphaScreen® technology, and data were analyzed using a 4-parameter logistic model to calculate IC50 values.

[4] = Homo sapiens, ASPC1, 2 h, read-out: 2 h p-ERK (AsPC-1 cells), IC50, AsPC-1 cells, 2 h compound treatment
[5] = read-out: 2 h p-ERK (AsPC-1 cells), IC50, AsPC-1 cells, 2 h compound treatment

Sequence of His-tagged KRAS G12D protein (P01116 1-188 isoform P01116-2 G12D): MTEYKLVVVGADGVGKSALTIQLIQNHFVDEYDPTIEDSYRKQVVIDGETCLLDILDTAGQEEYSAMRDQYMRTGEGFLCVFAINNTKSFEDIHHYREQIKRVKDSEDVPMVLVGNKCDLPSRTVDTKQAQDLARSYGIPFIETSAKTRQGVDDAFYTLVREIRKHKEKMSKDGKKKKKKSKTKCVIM

Compound | IC50 [1] [nM] | IC50 [2, 4] [nM] | IC50 [3] [nM] | IC50 [2, 5] [nM]
CCc1c(F)ccc2cc(O)cc(-c3c(F)cc4c(N5CCCOCC5)nc(OC[C@@]56CCCN5C[C@H](F)C6)nc4c3F)c12 [Example 9, 4-(6,8-Difluoro-2-(((2R,7aS)-2-fluorotetrahydro-1H-pyrrolizin-7a(5H)-yl)methoxy)-4-(1,4-oxazepan-4-yl)quinazolin-7-yl)-5-ethyl-6-fluoronaphthalen-2-ol] | 4 | 259 | 3 | 
O=C1NCC2(CCCN(c3nc(OC[C@@]45CCCN4C[C@H](F)C5)nc4c(F)c(-c5cc(O)cc(Cl)c5C5CC5)ccc34)C2)O1 (stereo partly drawn) [Example 83, 7-(7-(3-Chloro-2-cyclopropyl-5-hydroxyphenyl)-8-fluoro-2-(((2R,7a5)-2-fluorotetrahydro-1H-pyrrolizin-7a(5H)-yl)methoxy)quinazolin-4-yl)-1-oxa-3,7-diazaspiro[4.5]decan-2-one] | 10 | 58 | 5 | 
CCc1c(F)ccc2cc(O)cc(-c3c(F)cc4c(N5CCC[C@]6(CCO6)C5)nc(OC[C@@]56CCCN5C[C@H](F)C6)nc4c3F)c12 (single isomer, unassigned) [Example 90] | 5 | 7 | 3 | 
CCc1cccc2cc(O)cc(-c3ccc4c(N5CCOCC(C)(O)C5)nc(OC[C@@]56CCCN5C[C@H](F)C6)nc4c3F)c12 (single isomer, unassigned) [Example 30] | 3 | 12 | 3 | 
C[C@@]1(O)COCCN(c2nc(OC[C@@]34CCCN3C[C@H](F)C4)nc3c(F)c(-c4cc(O)cc5ccc(F)c(Cl)c45)ccc23)C1 (single isomer, unassigned) [Example 82] | 5 | 24 | 2 | 
CCc1c(F)ccc2cc(O)cc(-c3c(N)cc4c(N5CCCOCC5)nc(OC[C@@]56CCCN5C[C@H](F)C6)nc4c3F)c12 [Example 46, 4-(6-Amino-8-fluoro-2-(((2R,7aS)-2-fluorotetrahydro-1H-pyrrolizin-7a(5H)-yl)methoxy)-4-(1,4-oxazepan-4-yl)quinazolin-7-yl)-5-ethyl-6-fluoronaphthalen-2-ol] | 79 | 2570 | 36 | 
CCC1CCCc2cc(O)cc(-c3ccc4c(N5CCC[C@@](C)(O)C5)nc(OC[C@@]56CCCN5C[C@H](F)C6)nc4c3F)c21 (stereo partly drawn) [Example 95, (3R)-1-(7-(8-Ethyl-3-hydroxy-5,6,7,8-tetrahydronaphthalen-1-yl)-8-fluoro-2-(((2R,7aS)-2-fluorotetrahydro-1H-pyrrolizin-7a(5H)-yl)methoxy)quinazolin-4-yl)-3-methylpiperidin-3-ol] | 12 | 180 | 9 | 
CCc1c(F)ccc2cc(O)cc(-c3c(F)cc4c(N5CCOCC(F)(F)C5)nc(OC[C@@]56CCCN5C[C@H](F)C6)nc4c3F)c12 [Example 37, 4-(4-(6,6-Difluoro-1,4-oxazepan-4-yl)-6,8-difluoro-2-(((2R,7aS)-2-fluorotetrahydro-1H-pyrrolizin-7a(5H)-yl)methoxy)quinazolin-7-yl)-5-ethyl-6-fluoronaphthalen-2-ol] | 11 | 391 | 10 | 
C#Cc1c(F)ccc2cc(O)cc(-c3c(F)cc4c(N5CCC[C@@](C)(O)C5)nc(OC[C@@]56CCCN5C[C@H](F)C6)nc4c3F)c12 (single isomer, unassigned) [Example 13] | 968 |  | 1254 | 205
CCc1c(F)ccc2cc(O)cc(-c3c(O)cc4c(N5CCC[C@@](C)(O)C5)nc(OC[C@@]56CCCN5C[C@H](F)C6)nc4c3F)c12 (single isomer, unassigned) [Example 27] | 1 | 18 | 1 | 
CCc1c(F)ccc2cc(O)cc(-c3c(F)cc4c(N5C[C@H]6CC[C@@H](C5)O6)nc(OC[C@@]56CCCN5C[C@H](F)C6)nc4c3F)c12 (relative stereo) [Example 18, rel-4-(4-((1R,5S)-8-Oxa-3-azabicyclo[3.2.1]octan-3-yl)-6,8-difluoro-2-(((2R,7aS)-2-fluorotetrahydro-1H-pyrrolizin-7a(5H)-yl)methoxy)quinazolin-7-yl)-5-ethyl-6-fluoronaphthalen-2-ol] | 46 | 2890 | 37 | 
Oc1cc(-c2ccc3c(N4CCCOCC4)nc(OC[C@@]45CCCN4C[C@H](F)C5)nc3c2F)c2ccccc2c1 [Example 42, 4-(8-Fluoro-2-(((2R,7aS)-2-fluorotetrahydro-1H-pyrrolizin-7a(5H)-yl)methoxy)-4-(1,4-oxazepan-4-yl)quinazolin-7-yl)naphthalen-2-ol] | 25 | 1160 | 14 | 
CCc1c(F)ccc2cc(N)cc(-c3c(F)cc4c(N5CCOCC(C)(O)C5)nc(OC[C@@]56CCCN5C[C@H](F)C6)nc4c3F)c12 (single isomer, unassigned) [Example 72] | 8 |  | 2 | 151
CCc1c(F)ccc2cc(O)cc(-c3ccc4c(N5CCCC6(CCO6)C5)nc(OC[C@@]56CCCN5C[C@H](F)C6)nc4c3F)c12 (stereo partly drawn) [Example 40, 5-Ethyl-6-fluoro-4-(8-fluoro-2-(((2R,7aS)-2-fluorotetrahydro-1H-pyrrolizin-7a(5H)-yl)methoxy)-4-(1-oxa-6-azaspiro[3.5]nonan-6-yl)quinazolin-7-yl)naphthalen-2-ol] | 6 | 53 | 11 | 
CCc1c(F)ccc2cc(O)cc(-c3c(F)cc4c(N5CCOCC(C)(O)C5)nc(OC[C@@]56CCCN5C[C@H](F)C6)nc4c3F)c12 (single isomer, unassigned) [Example 34] | 2 | 2 | 2 | 
C/C=C\c1c(Cl)cc2[nH]ncc2c1-c1ccc2c(N3CCCC4(CNC(=O)O4)C3)nc(OC[C@@]34CCCN3C[C@H](F)C4)nc2c1F (stereo partly drawn) [Example 117, 7-(7-(6-Chloro-5-((Z)-prop-1-en-1-yl)-1H-indazol-4-yl)-8-fluoro-2-(((2R,7aS)-2-fluorotetrahydro-1H-pyrrolizin-7a(5H)-yl)methoxy)quinazolin-4-yl)-1-oxa-3,7-diazaspiro[4.5]decan-2-one] | 3 | 74 | 2 | 
CCc1c(F)ccc2cc(N)cc(-c3c(F)cc4c(N5CCCC6(CNC(=O)O6)C5)nc(OC[C@@]56CCCN5C[C@H](F)C6)nc4c3F)c12 (stereo partly drawn) [Example 73, 7-(7-(3-Amino-8-ehtyl-7-fluoronaphthalen-1-yl)-6,8-difluoro-2-(((2R,7aS)-2-fluorotetrahydro-1H-pyrrolizin-7a(5H)-yl)methoxy)quinazolin-4-yl)-1-oxa-3,7-diazaspiro[4.5]decan-2-one] | 2 | 90 | 1 | 
CCc1c(F)ccc2cc(O)cc(-c3c(F)cc4c(N5CCCC6(CNC(=O)O6)C5)nc(OC[C@@]56CCCN5C[C@H](F)C6)nc4c3F)c12 (single isomer, unassigned) [Example 56] | 24 |  | 8 | 507
CCc1c(F)ccc2cc(O)cc(-c3ccc4c(N5CCCC(O)(C(F)F)C5)nc(OC[C@@]56CCCN5C[C@H](F)C6)nc4c3F)c12 (single isomer, unassigned) [Example 23] | 2 | 157 | 2 | 
